{"source": "paper PMC4810412", "about": "“Identification of a Fragment-Based Scaffold that Inhibits the Glycosyltransferase WaaG from Escherichia coli” (Antibiotics, 2016)", "target": "WaaG (α-1,3-glucosyltransferase I) (Escherichia coli, UniProt P25740)", "sequence (P25740 whole entry, the tested form may be a part)": "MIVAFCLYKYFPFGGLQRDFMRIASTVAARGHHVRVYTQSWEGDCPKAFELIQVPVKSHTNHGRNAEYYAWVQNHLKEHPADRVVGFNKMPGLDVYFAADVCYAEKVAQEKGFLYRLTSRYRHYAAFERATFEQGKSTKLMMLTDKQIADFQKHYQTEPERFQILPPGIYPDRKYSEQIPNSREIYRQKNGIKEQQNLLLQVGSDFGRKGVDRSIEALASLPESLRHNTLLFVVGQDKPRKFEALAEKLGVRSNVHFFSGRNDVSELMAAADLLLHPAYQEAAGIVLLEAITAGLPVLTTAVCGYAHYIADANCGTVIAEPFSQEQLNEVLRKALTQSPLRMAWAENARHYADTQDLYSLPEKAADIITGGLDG", "test": "[…]-glucose transfer from UDP-Glc to truncated LPS, SDS-PAGE autoradiography, dose-response", "format": "biochemical"}
{"molecule": "Nc1nc(-c2ccc(O)cc2)cs1", "note": "[L1, 4-(2-amino-1,3-thiazol-4-yl)phenol]", "values": [{"measurement": "IC50", "value": 1000, "unit": "µM"}]}
